The results in this text go back to patent publication US7795259B2, “Pyrrolopyrazines and pyrazolopyrazines useful as inhibitors of protein kinases” (Vertex Pharmaceuticals Incorporated, priority 2004, dated 2010).

The Ki is a measure of affinity in units of concentration, obtained from inhibition or displacement.

The target in this assay is T1, full length Aurora-A (AA 1-403) (Homo sapiens, UniProt O14965).
T1 sequence (O14965 1-403): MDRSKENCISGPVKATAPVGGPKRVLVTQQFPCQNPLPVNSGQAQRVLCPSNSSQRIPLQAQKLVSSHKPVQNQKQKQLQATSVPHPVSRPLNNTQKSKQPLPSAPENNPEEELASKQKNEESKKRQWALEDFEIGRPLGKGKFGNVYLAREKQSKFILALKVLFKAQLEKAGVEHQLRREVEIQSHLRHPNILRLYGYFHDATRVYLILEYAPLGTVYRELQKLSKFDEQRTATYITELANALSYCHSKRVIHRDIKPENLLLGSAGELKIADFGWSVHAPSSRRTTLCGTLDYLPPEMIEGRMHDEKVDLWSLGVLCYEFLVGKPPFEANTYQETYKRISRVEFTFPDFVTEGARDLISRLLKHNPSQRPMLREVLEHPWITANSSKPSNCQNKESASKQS
The assay is described as follows: AuroraA Inhibition Assay (coupled enzyme system). In kind it is biochemical. The following applies: 200 μM ATP, 800 μM peptide LRRASLG, 35 nM Aurora-A, 30° C. The protocol: Compounds were screened for their ability to inhibit full length Aurora-A (AA 1-403) activity using a standard coupled enzyme system (Fox et al., Protein Sci., 7, pp. 2249 (1998)). Reactions were carried out in a solution containing 100 mM HEPES (pH 7.5), 10 mM MgCl2, 25 mM NaCl, 300 μM NADH, 1 mM DTT and 3% DMSO. Final substrate concentrations in the assay were 200 μM ATP (Sigma Chemicals, St Louis, Mo.) and 800 μM peptide (LRRASLG, American Peptide, Sunnyvale, Calif.). Reactions were carried out at 30° C. and 35 nM Aurora-A. Final concentrations of the components of the coupled enzyme system were 2.5 mM phosphoenolpyruvate, 200 μM NADH, 60 μg/ml pyruvate kinase and 20 μg/ml lactate dehydrogenase.
An assay stock buffer solution was prepared containing all of the reagents listed above with the exception of ATP and the test compound of interest. The assay stock buffer solution (60 μl) was incubated in a 96 well plate with 2 μl of the test compound of interest at final concentrations spanning 0.002 μM to 30 μM at 30° C. for 10 min. […] Rates of reaction were obtained using a Molecular Devices Spectramax plate reader (Sunnyvale, Calif.) over 10 min at 30° C. The Ki values were determined from the rate data as a function of inhibitor concentration using computerized nonlinear regression (Prism 3.0, Graphpad Software, San Diego, Calif.).

As for `Clc1cnc2[nH]cc(-c3cccc(Br)c3)c2n1` [Compound I-1, 7-(3-Bromo-phenyl)-2-chloro-5H-pyrrolo[2,3-b]pyrazine], the Ki is less than 200 nM. The figure for `C[C@H](Nc1nc(-c2c[nH]c3ncc(Cl)nc23)ncc1F)c1ccc(F)cc1` [Compound I-28] is less than 200 nM.
